Results published in patent publication US20050113283A1, “Methods of treating conditions associated with an EDG-4 receptor” (priority 2002, published 2005).
Entries after “also recorded” stand apart in the source; their conditions may differ.

How the values were obtained:
[1] = system: human Edg-4 receptor; assay: Calcium mobilization assay (FLIPR), HTC rat hepatoma cells transfected with human Edg-4; assay type: cell-based; conditions: Edg-4 relative to other Edg receptors; for Fold-selectivity for Edg-4 (IC50): antagonists; for Fold Selectivity for Edg-4 (EC50): agonists
Source text: (§1) LPA receptors such as Edg-4, couple to calcium effector pathways, and result in increases in intracellular calcium following receptor activation (An et al., Molecular Pharmacology, 54:881-888, 1998, incorporated herein by reference). This biological response lends itself to a very efficient, high-throughput screen using a Fluorescence Imaging Plate Reader (FLIPR; Molecular Devices, Sunnyvale, Calif.). The FLIPR system is a real-time, cell-based assay system with continuous fluorescence detection using a cooled CCD camera. The FLIPR system was used to developing an Edg-4 receptor screen. Rat hepatoma cells stably expressing Edg-4 receptor were plated on 384-well plates and loaded with a calcium dye loading kit (Molecular Devices, Sunnyvale, Calif.) for 1 hour at room temperature. Cells were then placed on the FLIPR^354 (Molecular Devices, Sunnyvale, Calif.) and excited by an argon laser at 488 nm. The data for the entire 384-well plate was updated every second. An integrated robotic pipettor allowed for simultaneous compound addition into each individual well in the plate.

[2] = target: T1, PLA2-II (Crotalus atrox, UniProt P00624); assay: Enzyme assay Phospholipase PLA2-II; assay type: biochemical; conditions: 300 μM; significance >50%
T1 construct: Source: Crotalus atrox; from tissue
T1 sequence (P00624 17-138): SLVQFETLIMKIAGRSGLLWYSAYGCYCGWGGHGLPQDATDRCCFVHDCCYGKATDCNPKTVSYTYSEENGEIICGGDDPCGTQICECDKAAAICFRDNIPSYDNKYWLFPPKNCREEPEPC
Description: 8. Phospholipase PLA2-II (Katsumata et al., 1986, Anal. Biochem. 154:676-681).
Substrate: 0.03 μCi 1 -Palmitoyl-2-[1-^14C]oleoyl-3-phosphatidylcholine
Pre-Incubation Time/Temp: 5 minutes at 37° C.
Incubation Time/Temp: 5 minutes at 37° C.
Incubation Buffer: 0.1M glycine-NaOH, […], pH 9.0
Quantitation Method: Quantitation of [^14C]oleate
Significance Criteria: >50% of max stimulation or inhibition

[3] = target: T2, Potassium channel [KATP] (Cricetus cricetus, UniProt Q09427); assay: Radioligand binding Potassium Channel [KATP]; parameters: species or system Syrian hamster; conditions: 10 μM; significance ≧50%
T2 construct: endogenous in cells; host or cells: HIT-T15 Syrian hamster pancreatic beta cells
T2 sequence (Q09427 whole entry): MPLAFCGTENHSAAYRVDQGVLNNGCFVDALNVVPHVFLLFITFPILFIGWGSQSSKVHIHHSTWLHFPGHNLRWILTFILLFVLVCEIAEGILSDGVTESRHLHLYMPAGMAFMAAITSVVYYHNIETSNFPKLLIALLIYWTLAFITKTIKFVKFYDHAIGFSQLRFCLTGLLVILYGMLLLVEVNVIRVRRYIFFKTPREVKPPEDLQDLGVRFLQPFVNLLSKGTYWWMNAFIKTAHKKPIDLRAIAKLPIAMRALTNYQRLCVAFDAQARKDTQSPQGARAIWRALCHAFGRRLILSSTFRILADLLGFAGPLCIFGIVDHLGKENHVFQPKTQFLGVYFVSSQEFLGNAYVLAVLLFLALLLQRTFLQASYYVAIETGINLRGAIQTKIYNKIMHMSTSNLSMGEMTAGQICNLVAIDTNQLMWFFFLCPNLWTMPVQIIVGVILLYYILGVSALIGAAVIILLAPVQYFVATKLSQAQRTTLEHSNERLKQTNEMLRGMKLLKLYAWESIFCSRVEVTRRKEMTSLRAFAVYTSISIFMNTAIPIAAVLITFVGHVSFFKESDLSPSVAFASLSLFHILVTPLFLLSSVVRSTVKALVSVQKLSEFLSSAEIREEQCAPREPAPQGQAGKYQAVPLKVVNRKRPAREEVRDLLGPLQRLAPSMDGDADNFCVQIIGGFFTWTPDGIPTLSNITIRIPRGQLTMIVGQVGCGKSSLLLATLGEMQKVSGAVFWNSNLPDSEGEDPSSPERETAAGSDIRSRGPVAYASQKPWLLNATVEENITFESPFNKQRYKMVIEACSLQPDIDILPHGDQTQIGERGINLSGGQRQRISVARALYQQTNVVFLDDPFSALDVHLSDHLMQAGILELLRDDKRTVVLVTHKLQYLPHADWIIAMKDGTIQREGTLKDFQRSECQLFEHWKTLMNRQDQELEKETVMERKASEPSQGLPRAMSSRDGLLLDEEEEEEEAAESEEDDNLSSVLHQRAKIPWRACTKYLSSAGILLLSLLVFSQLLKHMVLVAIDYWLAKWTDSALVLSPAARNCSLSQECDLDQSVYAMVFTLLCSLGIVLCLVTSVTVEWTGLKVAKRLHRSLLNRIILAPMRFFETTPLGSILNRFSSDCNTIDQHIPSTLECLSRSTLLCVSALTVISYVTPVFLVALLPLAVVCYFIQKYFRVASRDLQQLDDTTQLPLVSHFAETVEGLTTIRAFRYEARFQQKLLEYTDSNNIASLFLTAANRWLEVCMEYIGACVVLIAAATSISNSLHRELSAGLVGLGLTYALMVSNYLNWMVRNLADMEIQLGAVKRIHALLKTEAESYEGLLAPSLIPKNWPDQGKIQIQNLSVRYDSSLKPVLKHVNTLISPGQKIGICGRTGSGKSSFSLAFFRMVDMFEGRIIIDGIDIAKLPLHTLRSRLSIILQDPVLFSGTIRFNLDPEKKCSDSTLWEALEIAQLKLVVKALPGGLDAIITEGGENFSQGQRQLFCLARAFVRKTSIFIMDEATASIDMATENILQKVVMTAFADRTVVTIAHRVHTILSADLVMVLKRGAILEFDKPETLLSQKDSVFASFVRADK
Description: Source: Syrian hamster pancreatic beta cells HIT-T15
Ligand: 5 nM ^3H Glyburide
Incubation Time/Temp: 2 hours at 25° C.
Incubation Buffer: 50 mM MOPS, 0.1 mM CaCl2, pH 7.4
NonSpecific Ligand: 10 μM Glyburide
Quantitation Method: Radioligand Binding
Significance Criteria: ≧50% of max stimulation or inhibition

[4] = target: T3, PLC (Bacillus cereus, UniProt P09598); assay: Enzyme assay Phospholipase PLC; assay type: biochemical; conditions: 10 μM
T3 construct: Source: Bacillus cereus; host or cells: Bacillus cereus
T3 sequence (P09598 39-283 limits assumed): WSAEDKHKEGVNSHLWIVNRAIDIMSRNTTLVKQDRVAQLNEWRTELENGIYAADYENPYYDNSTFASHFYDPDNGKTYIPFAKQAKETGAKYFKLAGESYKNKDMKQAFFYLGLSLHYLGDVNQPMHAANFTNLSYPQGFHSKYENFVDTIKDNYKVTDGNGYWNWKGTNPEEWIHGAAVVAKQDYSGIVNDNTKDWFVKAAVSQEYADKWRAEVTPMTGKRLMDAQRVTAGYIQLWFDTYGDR
Description: 9. Phospholipase PLC (Hergenrother et al, 1995, Anal. Biochem. 229:313-316).
Substrate: 400 μM 1,2-Dihexanoyl sn-glycerol-3-phosphocholine
Pre-Incubation Time/Temp: 10 minutes at 37° C.
Incubation Time/Temp: 5 minutes at 37 ° C.
Incubation Buffer: 0.1 M 3,3-dimethylglutaric acid, pH 7.3
Quantitation Method: Spectrophotometric quantitation of phosphorylcholine

[5] = target: T4, Edg-8 (Homo sapiens, UniProt Q9H228); assay: Calcium mobilization assay (FLIPR), HTC cells expressing Edg 8; assay type: cell-based; conditions: for IC50: inhibition; for EC50: agonist
T4 construct: expressed in transfected cells; host or cells: HTC rat hepatoma cells (from the earlier reading)
T4 sequence (Q9H228 whole entry): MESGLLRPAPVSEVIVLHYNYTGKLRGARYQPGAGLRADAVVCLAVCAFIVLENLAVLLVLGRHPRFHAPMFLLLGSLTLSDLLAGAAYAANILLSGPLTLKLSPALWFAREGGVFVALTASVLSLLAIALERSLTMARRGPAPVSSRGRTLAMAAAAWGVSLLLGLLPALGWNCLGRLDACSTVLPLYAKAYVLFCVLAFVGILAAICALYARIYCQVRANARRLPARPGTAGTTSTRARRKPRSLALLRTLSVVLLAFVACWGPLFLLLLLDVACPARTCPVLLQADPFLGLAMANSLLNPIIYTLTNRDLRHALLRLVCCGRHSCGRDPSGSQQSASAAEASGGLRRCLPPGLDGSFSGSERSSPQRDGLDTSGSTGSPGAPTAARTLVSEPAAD

[6] = target: T5, Edg-5 (Homo sapiens, UniProt O95136); assay: Calcium mobilization assay (FLIPR), HTC cells expressing Edg 5; assay type: cell-based; conditions: for IC50: inhibition; for EC50: agonist
T5 construct: expressed in transfected cells; host or cells: HTC rat hepatoma cells (from the earlier reading)
T5 sequence (O95136 whole entry): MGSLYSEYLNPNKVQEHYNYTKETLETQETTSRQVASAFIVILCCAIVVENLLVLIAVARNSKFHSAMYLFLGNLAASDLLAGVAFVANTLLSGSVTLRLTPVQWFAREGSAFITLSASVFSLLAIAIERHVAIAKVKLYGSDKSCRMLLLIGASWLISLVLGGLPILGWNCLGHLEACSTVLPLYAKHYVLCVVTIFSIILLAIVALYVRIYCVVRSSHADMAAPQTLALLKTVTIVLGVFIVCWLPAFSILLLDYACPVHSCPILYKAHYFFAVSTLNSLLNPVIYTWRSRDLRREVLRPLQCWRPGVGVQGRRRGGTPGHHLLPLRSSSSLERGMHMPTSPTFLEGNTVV

[7] = target: T6, Edg-3 (Homo sapiens, UniProt Q99500); assay: Calcium mobilization assay (FLIPR), HTC cells expressing Edg 3; assay type: cell-based; conditions: for IC50: inhibition; for EC50: agonist
T6 construct: expressed in transfected cells; host or cells: HTC rat hepatoma cells (from the earlier reading)
T6 sequence (Q99500 whole entry): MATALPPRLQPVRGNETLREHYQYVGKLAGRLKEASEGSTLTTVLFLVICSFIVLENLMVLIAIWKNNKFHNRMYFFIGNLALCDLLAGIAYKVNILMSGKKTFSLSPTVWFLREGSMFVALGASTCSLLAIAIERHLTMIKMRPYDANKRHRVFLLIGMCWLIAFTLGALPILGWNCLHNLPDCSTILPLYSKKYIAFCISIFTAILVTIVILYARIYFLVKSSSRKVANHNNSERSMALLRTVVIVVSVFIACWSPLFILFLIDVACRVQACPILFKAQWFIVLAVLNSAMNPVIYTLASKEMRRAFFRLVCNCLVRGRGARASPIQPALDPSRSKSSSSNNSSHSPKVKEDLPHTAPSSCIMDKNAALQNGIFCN

[8] = target: T7, Edg-7 (Homo sapiens, UniProt Q9UBY5); assay: Calcium mobilization assay (FLIPR), HTC cells expressing Edg 7; assay type: cell-based; conditions: calcium mobilization; for IC50: inhibition; for EC50: agonist
T7 construct: expressed in transfected cells; host or cells: HTC rat hepatoma cells (from the earlier reading)
T7 sequence (Q9UBY5 1-353): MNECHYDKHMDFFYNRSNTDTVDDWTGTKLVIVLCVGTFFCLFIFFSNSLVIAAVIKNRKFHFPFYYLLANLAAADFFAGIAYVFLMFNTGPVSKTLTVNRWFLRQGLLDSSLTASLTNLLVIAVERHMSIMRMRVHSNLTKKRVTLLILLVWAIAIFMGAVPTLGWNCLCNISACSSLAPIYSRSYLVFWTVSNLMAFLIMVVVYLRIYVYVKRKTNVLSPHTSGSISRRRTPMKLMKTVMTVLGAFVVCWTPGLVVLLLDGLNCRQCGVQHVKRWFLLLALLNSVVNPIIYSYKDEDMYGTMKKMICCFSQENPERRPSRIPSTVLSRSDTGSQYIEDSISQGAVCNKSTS

[9] = target: T8, Edg-6 (Homo sapiens, UniProt O95977); assay: Calcium mobilization assay (FLIPR), HTC cells expressing Edg 6; assay type: cell-based; conditions: for IC50: inhibition; for EC50: agonist
T8 construct: expressed in transfected cells; host or cells: HTC rat hepatoma cells (from the earlier reading)
T8 sequence (O95977 1-384): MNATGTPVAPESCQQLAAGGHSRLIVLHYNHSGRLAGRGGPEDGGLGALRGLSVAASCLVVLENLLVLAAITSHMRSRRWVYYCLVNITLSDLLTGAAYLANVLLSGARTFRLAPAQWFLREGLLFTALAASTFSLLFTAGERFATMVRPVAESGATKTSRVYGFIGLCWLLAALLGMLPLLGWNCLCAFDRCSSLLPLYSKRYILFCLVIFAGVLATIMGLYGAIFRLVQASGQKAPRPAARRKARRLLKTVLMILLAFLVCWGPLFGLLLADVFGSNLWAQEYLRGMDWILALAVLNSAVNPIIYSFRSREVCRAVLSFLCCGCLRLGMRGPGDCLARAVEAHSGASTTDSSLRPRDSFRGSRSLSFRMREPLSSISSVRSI

[10] = target: T9, Edg-1 (Homo sapiens, UniProt P21453); assay: Calcium mobilization assay (FLIPR), HTC cells expressing Edg 1; assay type: cell-based; conditions: for IC50: inhibition; for EC50: agonist
T9 construct: expressed in transfected cells; host or cells: HTC rat hepatoma cells (from the earlier reading)
T9 sequence (P21453 whole entry): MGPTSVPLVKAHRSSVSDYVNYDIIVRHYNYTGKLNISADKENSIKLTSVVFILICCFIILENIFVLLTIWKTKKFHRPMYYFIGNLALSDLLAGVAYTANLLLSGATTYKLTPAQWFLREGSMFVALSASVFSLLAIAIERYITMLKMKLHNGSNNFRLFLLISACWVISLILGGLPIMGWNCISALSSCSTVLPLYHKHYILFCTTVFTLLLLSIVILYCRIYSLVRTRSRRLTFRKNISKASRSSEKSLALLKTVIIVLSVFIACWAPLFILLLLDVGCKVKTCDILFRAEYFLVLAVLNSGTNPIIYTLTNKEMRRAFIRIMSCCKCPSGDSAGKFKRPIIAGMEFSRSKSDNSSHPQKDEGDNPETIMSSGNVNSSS

[11] = system: HUVEC cells; assay: Migration assay, SIP induced chemotaxis; assay type: cell-based, human; conditions: FIG. 10
Description: (§2) Cells were plated in a 24 well format using Fluoroblok filter insert plates ([…]) or Fluoroblok matrigel coated filter insert plates (Becton Dickinson, San Diego, Calif.). The assay was a modified Boyden Chamber assay in which a cell suspension (1 ×10^5 cells/ml) was prepared in serum free medium and added to the top chamber. LPA or SIP (doses ranged from 0.1-10 μM in serum free medium) was added to the bottom chamber. Following a 20-24 hour incubation period, the number of cells migrating or invading into the lower chamber was quantitated by transferring the filter insert into a fresh 24-well plate containing 4 μg/ml calcein AM (Molecular Probes, Sunnyvale, Calif.) in Hank's Balanced Salt Solution and staining for one hour.
(§3) Detection was via fluorescent readout at 450 nm excitation/530 nm emission using a fluorimeter. The level of fluorescence correlated with cell number.

[12] = target: T10, Edg-2 (Homo sapiens, UniProt Q92633); assay: Calcium mobilization assay (FLIPR), HTC cells expressing Edg 2; assay type: cell-based; conditions: for IC50: inhibition; for EC50: agonist
T10 construct: expressed in transfected cells; host or cells: HTC rat hepatoma cells (from the earlier reading)
T10 sequence (Q92633 whole entry): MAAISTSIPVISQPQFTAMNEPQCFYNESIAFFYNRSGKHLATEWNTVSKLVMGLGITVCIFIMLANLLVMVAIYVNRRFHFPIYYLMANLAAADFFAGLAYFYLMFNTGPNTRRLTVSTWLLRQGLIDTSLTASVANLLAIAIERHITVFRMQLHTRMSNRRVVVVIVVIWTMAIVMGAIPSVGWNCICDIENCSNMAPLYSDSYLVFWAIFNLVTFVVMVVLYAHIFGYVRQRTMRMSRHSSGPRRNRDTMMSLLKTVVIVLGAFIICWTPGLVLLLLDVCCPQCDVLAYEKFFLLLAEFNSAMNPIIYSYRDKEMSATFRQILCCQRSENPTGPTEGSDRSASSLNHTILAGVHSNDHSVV

[13] = target: T11, human Edg-4 receptor (Homo sapiens, UniProt Q9HBW0); assay: Calcium mobilization assay (FLIPR), HTC rat hepatoma cells transfected with human Edg-4; assay type: cell-based; conditions: for IC50: inhibition; for IC50 / EC50: calcium mobilization; for potency relative to compound 101: dose response curve, FIG. 2; for inhibition of LPA-induced calcium mobilization, human Edg-4: clonal HTC cell line, FIG. 11; for EC50: agonist
T11 construct: IC50 Edg-4; other: agonist, calcium mobilization; potency relative to compound 101; calcium response (agonist)
T11 sequence (Q9HBW0 1-340 limits assumed): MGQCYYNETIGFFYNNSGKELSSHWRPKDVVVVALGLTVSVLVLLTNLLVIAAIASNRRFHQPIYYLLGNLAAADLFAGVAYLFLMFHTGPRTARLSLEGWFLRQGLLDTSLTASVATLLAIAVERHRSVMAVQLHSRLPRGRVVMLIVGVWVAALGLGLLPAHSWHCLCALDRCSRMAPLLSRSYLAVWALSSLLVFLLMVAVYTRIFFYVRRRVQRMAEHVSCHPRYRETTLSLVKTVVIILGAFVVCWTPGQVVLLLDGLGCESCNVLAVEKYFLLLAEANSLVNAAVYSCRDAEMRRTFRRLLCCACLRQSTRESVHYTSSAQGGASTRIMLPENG
Source text: as §1

[14] = system: rat Edg-4 receptor; assay: LPA induced calcium mobilization, HTC cells transfected with pooled rat Edg-4 clones; assay type: cell-based; conditions: pooled HTC population, FIG. 12
Source text: as §1

[15] = target: T12, mouse Edg-4 receptor (Mus musculus, UniProt Q9JL06); assay: LPA induced calcium mobilization, HTC cells transfected with pooled mouse Edg-4 clones; assay type: cell-based; conditions: pooled HTC population, FIG. 13
T12 construct: expressed in transfected cells; host or cells: HTC rat hepatoma cells, pooled population
T12 sequence (Q9JL06 whole entry): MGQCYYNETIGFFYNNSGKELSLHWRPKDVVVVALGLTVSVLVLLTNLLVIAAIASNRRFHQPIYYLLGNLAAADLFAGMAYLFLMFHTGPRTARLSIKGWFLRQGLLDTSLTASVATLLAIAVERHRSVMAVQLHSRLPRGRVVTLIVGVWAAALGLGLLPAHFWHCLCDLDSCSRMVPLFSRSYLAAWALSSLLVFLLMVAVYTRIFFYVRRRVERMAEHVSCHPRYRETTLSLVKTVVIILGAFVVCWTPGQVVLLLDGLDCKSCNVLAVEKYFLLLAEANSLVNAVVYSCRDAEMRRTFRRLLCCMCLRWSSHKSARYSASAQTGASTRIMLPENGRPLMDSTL
Source text: as §1

[16] = Calcium mobilization assay, Null; assay type: cell-based; conditions: agonist
Source text: as §1

[17] = system: CaOV3 human ovarian cancer cells; assay: Migration assay, LPA stimulated chemotaxis; assay type: cell-based; conditions: CaOV3, FIG. 9
Description: as §2, §3
For most cells types, no further manipulation was required. For CaOV3 human ovarian cancer cells, however, it was necessary that the cells be serum starved overnight prior to preparing the cell suspension. In addition, the filter inserts were coated with a solution of 1 mg/ml rat-tail Collagen I (BD, SanDiego, Calif.).

Compound: O=C1NN=C(c2ccccc2)C(c2c[nH]c3ccccc23)N1 (single isomer, unassigned; (+)) [(+)-121, (+)-5-(1H-Indol-3-yl)-6-phenyl-4,5-dihydro-2H-[1,2,4]triazin-3-one]
- melting point: 281 °C

Compound: O=C(CC(=O)C(F)(F)F)Nc1cc(-c2ccccc2)n[nH]1 [Compound 101, 4,4,4-trifluoro-3-oxo-N-(5-phenyl-2H-pyrazol-3-yl)-butyramide]
- Fold-selectivity for Edg-4 (IC50) [1]: >29.9
- activity at PLA2-II [2]: no significant activity
- activity at Potassium channel [KATP] [3]: no significant activity
- activity at PLC [4]: no significant activity

Compound: O=C(CC(=O)C(F)(F)F)Nc1cc(-c2ccc(Cl)c(Cl)c2)n[nH]1 [Compound 103, N-[5-(3,4-dichloro-phenyl)-2H-pyrazol-3-yl]4,4,4-trifluoro-3-oxo-butyramide]
- IC50 [5]: > 20 µM
- IC50 [6]: > 20 µM
- IC50 [7]: > 20 µM
- IC50 [8]: > 20 µM
- IC50 [9]: > 20 µM
- IC50 [10]: > 20 µM
- inhibition of SIP induced chemotaxis [11]: did not inhibit
- IC50 [12]: > 20 µM
- Fold-selectivity for Edg-4 (IC50) [1]: >62.5
- IC50 [13]: 0.32 µM

Compound: COc1ccc(-c2cc(NC(=O)CC(=O)C(F)(F)F)[nH]n2)cc1 [Compound 105, 4,4-4-trifluoro-N-[5-(4-methoxy-phenyl)-2-pyrazol-3-yl]-3-oxo-butyramide]
- potency relative to compound 101 [13]: less potent than compound 101

Compound: O=C(CC(=O)C(F)(F)F)Nc1cc(-c2ccc(F)cc2)n[nH]1 [Compound 107]
- inhibition of LPA-induced calcium mobilization, human Edg-4 [13]: dose dependent inhibition
- inhibition of LPA-induced calcium mobilization, rat Edg-4 [14]: dose dependent inhibition
- inhibition of LPA-induced calcium mobilization, mouse Edg-4 [15]: dose dependent inhibition

Compound: COc1cccc(-c2cc(NC(=O)CC(=O)C(F)(F)F)[nH]n2)c1 [Compound 113, 4,4,4-trifluoro-N-[5-(3-methoxy-phenyl)-2H-pyrazol-3-yl]-3-oxo-butyramide]
- inhibition of LPA-induced calcium mobilization, human Edg-4 [13]: dose dependent inhibition
- inhibition of LPA-induced calcium mobilization, rat Edg-4 [14]: dose dependent inhibition
- inhibition of LPA-induced calcium mobilization, mouse Edg-4 [15]: dose dependent inhibition

Compound: O=C1NN=C(c2ccccc2)C(c2c[nH]c3ccccc23)N1 (stereo not drawn) [Compound 121, 5-(1H-Indol-3-yl)-6-phenyl-4,5-dihydro-2H-[1,2,4]triazin-3-one]
- IC50 [5]: > 20 µM
- IC50 [6]: > 20 µM
- IC50 [7]: > 20 µM
- IC50 [8]: > 20 µM
- IC50 [9]: > 20 µM
- IC50 [10]: > 20 µM
- IC50 [12]: > 20 µM
- Fold-selectivity for Edg-4 (IC50) [1]: >5.6
- IC50 [13]: 3.6 µM

Compound: FC(F)(F)c1ccc2nnc(-c3cccc(Cl)c3Cl)n2c1 [Compound 129, 3-(2,3-dichlorophenyl)-6-trifluoromethyl[1,2,4]triazolo[4,3-a]pyridine]
- EC50 [5]: > 25 µM
- EC50 [16]: > 25 µM
- EC50 [6]: > 25 µM
- EC50 [7]: > 25 µM
- EC50 [8]: > 25 µM
- EC50 [9]: > 25 µM
- EC50 [10]: > 25 µM
- EC50 [12]: > 25 µM
- Fold Selectivity for Edg-4 (EC50) [1]: >4.6
- EC50 [13]: 5.4 µM

Compound: FC(F)(F)c1ccc2nnc(-c3c(Cl)cccc3Cl)n2c1 [Compound 131, 3-(2,6-dichlorophenyl)-6-trifluoromethyl-[1,2,4]triazolo [4,3-a]pyridine]
- EC50 [5]: > 25 µM
- EC50 [16]: > 25 µM
- EC50 [6]: > 25 µM
- EC50 [7]: > 25 µM
- EC50 [8]: > 25 µM
- EC50 [9]: > 25 µM
- EC50 [10]: > 25 µM
- EC50 [12]: > 25 µM
- Fold Selectivity for Edg-4 (EC50) [1]: >2.5
- EC50 [13]: 9.9 µM

Compound: N-[5-(3,4-dichloro-phenyl)-2H-pyrazol-3-yl]4,4,4-trifluoro-3-oxo-butyramide [Compound 103]
- inhibition of LPA stimulated chemotaxis [17]: effectively blocked; also recorded: did inhibit
- inhibition of calcium response elicited by agonist 125 ([13]; HTC cells transfected with human Edg-4, FIG. 15): inhibited
- inhibition of LPA-induced calcium mobilization, human Edg-4 [13]: dose dependent inhibition
- potency relative to compound 101 [13]: 2-3 fold
- inhibition of LPA-induced calcium mobilization, rat Edg-4 [14]: dose dependent inhibition
- inhibition of LPA-induced calcium mobilization, mouse Edg-4 [15]: dose dependent inhibition
